Measured values as given in US11207320B2, “Compositions and methods for cancer expressing PDE3A or SLFN12” (The Broad Institute, Inc., priority 2015, dated 2021).

Key:
Assay type in all cases: cell-based
HeLa cells [1] = assay: Knockdown of SLFN12 expression using shRNA and testing for drug sensitivity; settings: 72 hours
Source text: FIG. 15A is a scatterplot showing mRNA robust multichip average (RMA) expression values for PDE3A and SLFN12 from the Cancer Cell Line Encyclopedia (CCLE) database (a detailed genetic characterization of a large panel of human cancer cell lines) with sensitive cell lines indicated (Barretina et al., Nature 483, 603-607, 2012). 21 sensitive cell lines were binned in three groups of 7 based on area under the curve (AUC) rank. FIG. 15B is a bar graph showing results of a Fisher's exact test on DNMDP sensitivity of cell lines with high expression of both SLFN12 and PDE3A (RMA Log 2>5) compared to other cell lines. The top half of the bar on the right indicates melanoma cell lines. FIG. 15C is a scatterplot showing mRNA RPKM+1 expression values for PDE3A and SLFN12 from RNA sequencing data. FIG. 15D is a bar graph showing qPCR expression changes of SLFN12 in HeLa cells transduced with shSLFN12 normalized to GAPDH. FIG. 15E is a plot showing viability of HeLa cells transduced with indicated shRNA reagents and treated with indicated concentrations of DNMDP for 72 hours.
Constructs expressing shRNAs targeting SLFN12, or the control vector, were packaged into lentiviruses and delivered into HeLa cells by viral transduction. […] SLFN12-targeting shRNAs were used, all of which were obtained from the TRC (CloneIDs: TRCN0000152141 and TRCN0000153520). […]

PC3 cells = assay: Compound sensitivity testing in cell lines (48 h viability); settings: Homo sapiens, PC-3; PC3, 48 hours
Description: (§1) 1500 NCI-H1734 or 1000 A549 cells were plated in a 384-well plate in 40 μl of RPMI supplemented with 10% Fetal Bovine Serum and 1% Pen/Strep. 24 hours after plating, a compound-library of 1924 small molecules was added at a concentration of 10 μM. Staurosporine was used a positive control for cytotoxicity at a concentration of 10 μM, and DMSO was used a negative control at a concentration of 1%. All compounds were incubated for 48 hours with indicated small molecules. After 48 hours, 384-well plates were removed from the incubator and allowed to cool to room temperature for 20 minutes. Cell viability was assessed by adding 40 μl of a 25% CELLTITERGLO® (Promega) in PBS with a THERMO COMBI™ or multichannel-pipette and incubated for 10 minutes. The luminescence signal was read using a Perkin-Elmer EnVision. Viability percentage was calculated by normalizing to DMSO controls.
(§2) 1000 HeLa (DMEM), 1000 A549 (RPMI), 500 MCF-7 (DMEM), 4000 PC3 (F12-K), 1000 NCI-H2122 (RPMI) or 1500 NCI-H1563 (RPMI) cells were plated in a 384-well plate in 40 μl of corresponding growth media supplemented with 10% Fetal Bovine Serum. 24 hours after plating, indicated compounds were added at indicated concentrations and incubated for 48 hours. Cell viability was assessed as described in Compound library screening in NCI-H1734 and A549 cell lines.

NCI-H2122 cells = assay: as above; settings: Homo sapiens; NCI-H2122, 48 hours
Description: as §1, §2

A549 cells = assay: as above; settings: Homo sapiens; A549, 48 hours
Description: as §1, §2

NCI-H1563 cells = assay: as above; settings: Homo sapiens; NCI-H1563, 48 hours
Description: as §1, §2

MCF7 cells = assay: as above; settings: Homo sapiens; MCF7, 48 hours
Description: as §1, §2

HeLa cells [2] = assay: DNMDP cytotoxicity after targeting PDE3A locus using CRISPR; settings: HeLa infected with Cas9 and sgRNAs against PDE3A
Description: FIG. 11A is a Western blot. HeLa cells were infected with Cas9 and indicated guide RNAs (sgRNA) against PDE3A. Western blots were probed for PDE3A at indicated time points. FIG. 11B is a bar graph showing percent rescue of HeLa cells that were infected with indicated sgRNAs for two weeks and treated with 1 μM of 6-(4-(diethylamino)-3-nitrophenyl)-5-methyl-4,5-dihydropyridazin-3(2H)-one (DNMDP) for 48 hours. Percent rescue was normalized to the Cas9-only control. FIG. 11C is a plot showing viability of cells infected with indicated sgRNAs and treated with various concentrations of 6-(4-(diethylamino)-3-nitrophenyl)-5-methyl-4,5-dihydropyridazin-3(2H)-one (DNMDP).
Based on the observations that DNMDP-sensitive cells expressed high levels of PDE3A, and that DNMDP competed with non-cytotoxic inhibitors for PDE3A binding, it was hypothesized that DNMDP mediated its cytotoxic phenotype through the interaction with PDE3A and that PDE3A abundance was a direct cellular determinant of DNMDP sensitivity. To validate this hypothesis, the effect of reducing levels of PDE3A on the response to DNMDP was tested. […] In an independent approach using an siRNA smart-pool containing four different siRNAs targeting PDE3A, PDE3A expression was reduced in HeLa cell line with a maximum efficiency of 70% between 24 and 72 hours after transfection. […]

In the case of `CCN(CC)c1ccc(C2=NNC(=O)CC2C)cc1[N+](=O)[O-]` (stereo not shown) [DNMDP, 6-(4-(diethylamino)-3-nitrophenyl)-5-methyl-4,5-dihydropyridazin-3(2H)-one], the “sensitivity after reduction of SLFN12 expression (shRNA)” value (HeLa cells [1]) is reported as “decreased sensitivity”, the EC50 (PC3 cells) is reported as > 1000 nM and the EC50 (NCI-H2122 cells) is reported as 10 to 100 nM. For the same molecule, the EC50 (A549 cells) was > 1000 nM, the EC50 (NCI-H1563 cells) was 10 to 100 nM and the EC50 (MCF7 cells) was > 1000 nM. The “rescue of toxicity by PDE3A sgRNA2 and sgRNA3” value (HeLa cells [2]) was “significant rescue of toxicity”.
